Reference: ChEMBL document CHEMBL1201862, “PubChem BioAssay data set” (2004)
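Grown in 96-well plates, cells were treated for 48 hours with each compound at five concentrations. Insufficient inhibition: endpoint recorded as highest concentration tested. Abbreviation: GI50, concentration required for 50% inhibition of growth.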 Active and inactive are the calls of the source. Rule as the data show it: active = GI50 up to about 1.1 µM and inactive = higher.

How the values were obtained:
Assay in all cases: inhibition of tumour cell growth, NCI panel, 48 h
[1] = tested on: 786-0
[2] = tested on: A498
[3] = tested on: A549
[4] = tested on: ACHN
[5] = tested on: BT-549
[6] = tested on: CAKI-1
[7] = tested on: CCRF-CEM
[8] = tested on: DU-145
[9] = tested on: EKVX
[10] = tested on: HCT-116
[11] = tested on: HCT-15
[12] = tested on: HL-60
[13] = tested on: HOP-62
[14] = tested on: HOP-92
[15] = tested on: HT-29
[16] = tested on: Hs-578T
[17] = tested on: IGROV-1
[18] = tested on: K562
[19] = tested on: LOX IMVI
[20] = tested on: M14
[21] = tested on: MDA-MB-231
[22] = tested on: MDA-N
[23] = tested on: MOLT-4
[24] = tested on: Malme-3M
[25] = tested on: NCI-H23
[26] = tested on: NCI-H460
[27] = tested on: NCI-H522
[28] = tested on: NCI/ADR-RES
[29] = tested on: OVCAR-3
[30] = tested on: OVCAR-4
[31] = tested on: OVCAR-5
[32] = tested on: OVCAR-8
[33] = tested on: PC-3
[34] = tested on: RPMI-8226
[35] = tested on: RXF 393
[36] = tested on: SF-268
[37] = tested on: SF-295
[38] = tested on: SK-MEL-28
[39] = tested on: SK-MEL-2
[40] = tested on: SK-MEL-5
[41] = tested on: SN12C
[42] = tested on: SNB-19
[43] = tested on: SR
[44] = tested on: SW-620
[45] = tested on: T47D
[46] = tested on: TK-10
[47] = tested on: U-251
[48] = tested on: UACC-257
[49] = tested on: UACC-62
[50] = tested on: UO-31
[51] = tested on: COLO 205
[52] = tested on: HCC 2998
[53] = tested on: KM12
[54] = tested on: MDA-MB-435
[55] = tested on: SK-OV-3
[56] = tested on: SNB-75
[57] = tested on: NCI-H226
[58] = tested on: SF-539
[59] = tested on: MCF7

Cc1ccc(S(=O)(=O)OCC(=O)O)cc1
GI50 [1]: > 100 µM (inactive) | GI50 [2]: > 100 µM (inactive) | GI50 [3]: > 100 µM (inactive) | GI50 [4]: > 100 µM (inactive) | GI50 [5]: > 100 µM (inactive) | GI50 [6]: > 100 µM (inactive) | GI50 [7]: > 100 µM (inactive) | GI50 [8]: > 100 µM (inactive) | GI50 [9]: > 100 µM (inactive) | GI50 [10]: > 100 µM (inactive) | GI50 [11]: > 100 µM | GI50 [12]: > 100 µM (inactive) | GI50 [13]: > 100 µM (inactive) | GI50 [14]: > 100 µM (inactive) | GI50 [15]: > 100 µM (inactive) | GI50 [16]: > 100 µM (inactive) | GI50 [17]: > 100 µM (inactive) | GI50 [18]: > 100 µM (inactive) | GI50 [19]: > 100 µM (inactive) | GI50 [20]: > 100 µM (inactive) | GI50 [21]: > 100 µM (inactive) | GI50 [22]: > 100 µM (inactive) | GI50 [23]: > 100 µM (inactive) | GI50 [24]: > 100 µM (inactive) | GI50 [25]: > 100 µM (inactive) | GI50 [26]: > 100 µM (inactive) | GI50 [27]: > 100 µM (inactive) | GI50 [28]: > 100 µM (inactive) | GI50 [29]: > 100 µM (inactive) | GI50 [30]: > 100 µM (inactive) | GI50 [31]: > 100 µM (inactive) | GI50 [32]: > 100 µM (inactive) | GI50 [33]: > 100 µM (inactive) | GI50 [34]: > 100 µM (inactive) | GI50 [35]: > 100 µM (inactive) | GI50 [36]: > 100 µM (inactive) | GI50 [37]: > 100 µM (inactive) | GI50 [38]: > 100 µM (inactive) | GI50 [39]: > 100 µM (inactive) | GI50 [40]: > 100 µM (inactive) | GI50 [41]: > 100 µM (inactive) | GI50 [42]: > 100 µM (inactive) | GI50 [43]: > 100 µM (inactive) | GI50 [44]: > 100 µM (inactive) | GI50 [45]: > 100 µM (inactive) | GI50 [46]: > 100 µM (inactive) | GI50 [47]: > 100 µM (inactive) | GI50 [48]: > 100 µM (inactive) | GI50 [49]: > 100 µM (inactive) | GI50 [50]: > 100 µM (inactive)

NNC(=S)NCCNC(=S)NN
GI50 [1]: > 100 µM (inactive) | GI50 [3]: > 100 µM (inactive) | GI50 [4]: > 100 µM (inactive) | GI50 [5]: > 100 µM (inactive) | GI50 [6]: > 100 µM (inactive) | GI50 [7]: > 100 µM (inactive) | GI50 [51]: > 100 µM (inactive) | GI50 [8]: > 100 µM (inactive) | GI50 [9]: > 100 µM (inactive) | GI50 [52]: > 100 µM (inactive) | GI50 [10]: > 100 µM (inactive) | GI50 [12]: > 100 µM (inactive) | GI50 [13]: > 100 µM (inactive) | GI50 [15]: > 100 µM (inactive) | GI50 [16]: > 100 µM (inactive) | GI50 [17]: > 100 µM (inactive) | GI50 [53]: > 100 µM (inactive) | GI50 [19]: > 100 µM (inactive) | GI50 [20]: > 100 µM (inactive) | GI50 [21]: 30.3 µM (inactive) | GI50 [54]: > 100 µM (inactive) | GI50 [22]: > 100 µM (inactive) | GI50 [23]: > 100 µM (inactive) | GI50 [24]: > 100 µM (inactive) | GI50 [25]: > 100 µM (inactive) | GI50 [26]: > 100 µM (inactive) | GI50 [27]: > 100 µM (inactive) | GI50 [29]: > 100 µM (inactive) | GI50 [30]: > 100 µM (inactive) | GI50 [31]: > 100 µM (inactive) | GI50 [33]: > 100 µM (inactive) | GI50 [34]: > 100 µM (inactive) | GI50 [36]: > 100 µM (inactive) | GI50 [37]: > 100 µM (inactive) | GI50 [38]: > 100 µM (inactive) | GI50 [39]: > 100 µM (inactive) | GI50 [40]: > 100 µM (inactive) | GI50 [55]: > 100 µM (inactive) | GI50 [41]: > 100 µM (inactive) | GI50 [42]: > 100 µM (inactive) | GI50 [56]: > 100 µM (inactive) | GI50 [43]: > 100 µM (inactive) | GI50 [44]: > 100 µM (inactive) | GI50 [45]: > 100 µM (inactive) | GI50 [47]: > 100 µM (inactive) | GI50 [48]: > 100 µM (inactive) | GI50 [49]: > 100 µM (inactive) | GI50 [50]: > 100 µM (inactive)

CO[C@@H](c1ccccc1)[C@H](O)[C@](O)(c1ccccc1)P(=O)(OC)OC
GI50 [1]: > 100 µM (inactive) | GI50 [2]: > 100 µM (inactive) | GI50 [3]: > 100 µM (inactive) | GI50 [4]: > 100 µM (inactive) | GI50 [5]: 47.6 µM (inactive) | GI50 [6]: > 100 µM (inactive) | GI50 [7]: > 100 µM (inactive) | GI50 [51]: > 100 µM (inactive) | GI50 [8]: > 100 µM (inactive) | GI50 [9]: > 100 µM (inactive) | GI50 [52]: > 100 µM (inactive) | GI50 [10]: > 100 µM (inactive) | GI50 [11]: > 100 µM | GI50 [12]: > 100 µM (inactive) | GI50 [14]: 91.6 µM (inactive) | GI50 [15]: > 100 µM (inactive) | GI50 [16]: > 100 µM (inactive) | GI50 [17]: > 100 µM (inactive) | GI50 [18]: > 100 µM (inactive) | GI50 [53]: > 100 µM (inactive) | GI50 [19]: > 100 µM (inactive) | GI50 [20]: > 100 µM (inactive) | GI50 [21]: > 100 µM (inactive) | GI50 [54]: > 100 µM (inactive) | GI50 [22]: > 100 µM (inactive) | GI50 [23]: > 100 µM (inactive) | GI50 [24]: > 100 µM (inactive) | GI50 [57]: > 100 µM (inactive) | GI50 [25]: > 100 µM (inactive) | GI50 [26]: > 100 µM (inactive) | GI50 [27]: > 100 µM (inactive) | GI50 [28]: > 100 µM (inactive) | GI50 [29]: > 100 µM (inactive) | GI50 [30]: > 100 µM (inactive) | GI50 [31]: > 100 µM (inactive) | GI50 [32]: > 100 µM (inactive) | GI50 [33]: > 100 µM (inactive) | GI50 [34]: > 100 µM (inactive) | GI50 [35]: > 100 µM (inactive) | GI50 [36]: > 100 µM (inactive) | GI50 [37]: > 100 µM (inactive) | GI50 [58]: > 100 µM (inactive) | GI50 [38]: > 100 µM (inactive) | GI50 [39]: > 100 µM (inactive) | GI50 [40]: > 100 µM (inactive) | GI50 [55]: > 100 µM (inactive) | GI50 [41]: > 100 µM (inactive) | GI50 [42]: > 100 µM (inactive) | GI50 [56]: > 100 µM (inactive) | GI50 [43]: > 100 µM (inactive) | GI50 [44]: > 100 µM (inactive) | GI50 [45]: > 100 µM (inactive) | GI50 [46]: > 100 µM (inactive) | GI50 [47]: > 100 µM (inactive) | GI50 [48]: > 100 µM (inactive) | GI50 [49]: > 100 µM (inactive) | GI50 [50]: > 100 µM (inactive)

COC(=O)C1C(O)C(C)C(O)C(C)/C=C\C=C(C)C(=O)Nc2c(C)c(OC(C)=O)c3c(c2O)C(=O)C(C)=C2OCOC(=C23)C(C)=CC(C)(O)C(O)C(C)C1O (stereo not drawn)
GI50 [1]: > 100 µM (inactive) | GI50 [3]: > 100 µM (inactive) | GI50 [4]: > 100 µM (inactive) | GI50 [5]: > 100 µM (inactive) | GI50 [51]: 20.4 µM (inactive) | GI50 [8]: > 100 µM (inactive) | GI50 [10]: 30.3 µM (inactive) | GI50 [12]: 29.4 µM (inactive) | GI50 [14]: 60.4 µM (inactive) | GI50 [15]: 42.5 µM (inactive) | GI50 [16]: > 100 µM (inactive) | GI50 [17]: 87.1 µM (inactive) | GI50 [20]: 38.9 µM (inactive) | GI50 [59]: 35.6 µM (inactive) | GI50 [21]: 24.9 µM (inactive) | GI50 [54]: 68.4 µM (inactive) | GI50 [22]: 59.8 µM (inactive) | GI50 [24]: 36.5 µM (inactive) | GI50 [57]: > 100 µM (inactive) | GI50 [29]: 24.3 µM (inactive) | GI50 [32]: 34 µM (inactive) | GI50 [33]: > 100 µM (inactive) | GI50 [36]: 68.4 µM (inactive) | GI50 [58]: > 100 µM (inactive) | GI50 [38]: 47 µM (inactive) | GI50 [39]: 32.3 µM (inactive) | GI50 [40]: 41.2 µM (inactive) | GI50 [43]: 96.4 µM (inactive) | GI50 [44]: 35.5 µM (inactive) | GI50 [45]: 52.2 µM (inactive) | GI50 [46]: > 100 µM (inactive) | GI50 [48]: 23 µM (inactive) | GI50 [50]: 82.4 µM (inactive)
